Read-outs that look alike come from different tables or passages of the source.
Tests used:
[1] = log P determination by HPLC (EEC Directive 79/831 Annex V.A8, gradient method); type: physicochemical; conditions: for chromatographic logP: acetonitrile/0.1% strength aqueous phosphoric acid or formic acid
[2] = tested on: caterpillars of the army worm (Spodoptera frugiperda); assay: Spodoptera frugiperda test, SPODFR spray treatment; type: in vivo; conditions: foliar, 168 h, 500 g a. i./ha, spray treatment of maize leaf discs, 7 d, read-out: % 7 d (effect in %, caterpillars killed)
Procedure: [table] To produce a suitable preparation of active compound, 1 part by weight of active compound is mixed with the stated amounts of solvents and emulsifier, and the concentrate is diluted with emulsifier-containing water to the desired concentration. Discs of maize leaves (Zea mays) are sprayed with a preparation of active compound of the desired concentration and, after drying, populated with caterpillars of the army worm (Spodoptera frugiperda). After the desired period of time, the effect in % is determined. 100% means that all caterpillars have been killed; 0% means that none of the caterpillars have been killed.

[3] = HPLC, gradient method, read-out: Physical data (logP)
[4] = HPLC, gradient method, read-out: Physical data: log P

chromatographic logP [1, 3] | chromatographic logP [1, 4] | chromatographic logP ([1]; HPLC gradient method, preparation examples, read-out: log P) | Physical data (logP) [1] | Compound | pest or weed control at 500 g/ha [2] [%]
4.13 | – | – | – | CC(NC(=O)/C=C/c1c(-c2ccc(Cl)cc2)nc2sc(C(F)(F)F)nn12)C(F)(F)F (stereo not shown) [Example 0024] | 100
– | – | – | – | CC(NC(=O)/C=C/c1c(-c2cccc(Cl)c2)nc2sc(C(F)(F)F)nn12)C(F)(F)F (stereo not shown) [Example 0094] | 100
3.33 | – | – | – | O=C(/C=C/c1c(-c2ccccc2Cl)nc2sc(C(F)(F)F)nn12)NC1CCC1 [Example 0153] | 100
3.46 | – | – | – | CCC(C)NC(=O)/C=C/c1c(-c2ccccc2Cl)nc2sc(C(F)(F)F)nn12 (stereo not shown) [Example 0167] | 100
3.85 | – | – | – | CCCC(C)NC(=O)/C=C/c1c(-c2ccccc2Cl)nc2sc(C(F)(F)F)nn12 (stereo not shown) [Example 0168] | 100
3.76 | – | – | – | CC(C)C(C)NC(=O)/C=C/c1c(-c2ccccc2Cl)nc2sc(C(F)(F)F)nn12 (stereo not shown) [Example 0174] | 83
3.63 | – | – | – | CC(NC(=O)/C=C/c1c(-c2ccccc2Cl)nc2sc(C(F)(F)F)nn12)C(F)(F)F (stereo not shown) [Example 0175] | 100
4.08 | – | – | – | O=C(/C=C/c1c(-c2ccccc2Cl)nc2sc(C(F)(F)F)nn12)Nc1ccc(F)cc1 [Example 0201] | 100
3.72 | – | – | – | CCC(CC)NC(=O)/C=C/c1c(-c2ccccc2Cl)nc2sc(C(F)(F)F)nn12 [Example 0215] | 100
– | 2.79 | – | – | O=C(/C=C/c1c(-c2ccccc2Cl)nc2sc(C(F)(F)F)nn12)N1CCOCC1 [Example 0223] | 100
– | 3.24 | – | – | Cc1ccccc1-c1nc2sc(C(F)(F)F)nn2c1/C=C/C(=O)NC(C)C [Example 0229] | 100
– | 3.59 | – | – | CCC(C)NC(=O)/C=C/c1c(-c2ccccc2C)nc2sc(C(F)(F)F)nn12 (stereo not shown) [Example 0238] | 100
– | 3.94 | – | – | CCCC(C)NC(=O)/C=C/c1c(-c2ccccc2C)nc2sc(C(F)(F)F)nn12 (stereo not shown) [Example 0239] | 100
– | 3.9 | – | – | Cc1ccccc1-c1nc2sc(C(F)(F)F)nn2c1/C=C/C(=O)NC(C)C(C)C (stereo not shown) [Example 0245] | 83
– | 3.76 | – | – | Cc1ccccc1-c1nc2sc(C(F)(F)F)nn2c1/C=C/C(=O)NC(C)C(F)(F)F (stereo not shown) [Example 0246] | 100
– | 2.45 | – | – | Cc1ccccc1-c1nc2sc(C(F)(F)F)nn2c1/C=C/C(=O)NC(C)c1ccccn1 (stereo not shown) [Example 0274] | 100
– | 3.85 | – | – | CCC(CC)NC(=O)/C=C/c1c(-c2ccccc2C)nc2sc(C(F)(F)F)nn12 [Example 0286] | 100
– | 3.24 | – | – | CC(C)NC(=O)/C=C/c1c(-c2ccc(F)cc2)nc2sc(C(F)(F)F)nn12 [Example 0300] | 100
– | 3.72 | – | – | CC(NC(=O)/C=C/c1c(-c2ccc(F)cc2)nc2sc(C(F)(F)F)nn12)C(F)(F)F (stereo not shown) [Example 0317] | 100
– | 2.96 | – | – | CC(C)NC(=O)/C=C/c1c(-c2ccccc2F)nc2sc(C(F)(F)F)nn12 [Example 0442] | 100
– | 3.33 | – | – | CCC(C)NC(=O)/C=C/c1c(-c2ccccc2F)nc2sc(C(F)(F)F)nn12 (stereo not shown) [Example 0451] | 100
– | 3.68 | – | – | CCCC(C)NC(=O)/C=C/c1c(-c2ccccc2F)nc2sc(C(F)(F)F)nn12 (stereo not shown) [Example 0452] | 100
– | 3.55 | – | – | CC(NC(=O)/C=C/c1c(-c2ccccc2F)nc2sc(C(F)(F)F)nn12)C(F)(F)F (stereo not shown) [Example 0459] | 100

chromatographic logP [1, 3] | chromatographic logP [1, 4] | chromatographic logP ([1]; HPLC gradient method, preparation examples, read-out: log P) | Physical data (logP) [1] | Compound | pest or weed control at 500 g/ha [2] [%]
– | 3.59 | – | – | CCC(CC)NC(=O)/C=C/c1c(-c2ccccc2F)nc2sc(C(F)(F)F)nn12 [Example 0499] | 83
– | 3.69 | – | – | CC(C)NC(=O)/C=C/c1c(-c2ccc(Cl)cc2Cl)nc2sc(C(F)(F)F)nn12 [Example 0513] | 100
– | 4.32 | – | – | CC(C)(C)NC(=O)/C=C/c1c(-c2ccc(Cl)cc2Cl)nc2sc(C(F)(F)F)nn12 [Example 0515] | 100
– | 4.23 | – | – | CC(NC(=O)/C=C/c1c(-c2ccc(Cl)cc2Cl)nc2sc(C(F)(F)F)nn12)C(F)(F)F (stereo not shown) [Example 0527] | 100
– | 4.63 | – | – | O=C(/C=C/c1c(-c2ccc(Cl)cc2Cl)nc2sc(C(F)(F)F)nn12)Nc1ccc(F)cc1 [Example 0553] | 100
– | 4.18 | – | – | CCN(CC)C(=O)/C=C/c1c(-c2ccc(Cl)cc2Cl)nc2sc(C(F)(F)F)nn12 [Example 0573] | 100
– | 3.32 | – | – | CC(C)NC(=O)/C=C/c1c(-c2ccc(F)cc2Cl)nc2sc(C(F)(F)F)nn12 [Example 0581] | 100
– | 3.89 | – | – | CC(C)(C)NC(=O)/C=C/c1c(-c2ccc(F)cc2Cl)nc2sc(C(F)(F)F)nn12 [Example 0583] | 100
– | 4.02 | – | – | CCCC(C)NC(=O)/C=C/c1c(-c2ccc(F)cc2Cl)nc2sc(C(F)(F)F)nn12 (stereo not shown) [Example 0591] | 100
– | 3.11 | – | – | COCC(C)NC(=O)/C=C/c1c(-c2ccc(F)cc2Cl)nc2sc(C(F)(F)F)nn12 (stereo not shown) [Example 0592] | 100
– | 3.9 | – | – | CC(C)C(C)NC(=O)/C=C/c1c(-c2ccc(F)cc2Cl)nc2sc(C(F)(F)F)nn12 (stereo not shown) [Example 0597] | 100
– | 4.37 | – | – | CC(C)C(NC(=O)/C=C/c1c(-c2ccc(F)cc2Cl)nc2sc(C(F)(F)F)nn12)C(F)(F)F (stereo not shown) [Example 0599] | 100
– | – | – | – | O=C(/C=C/c1c(-c2ccc(F)cc2Cl)nc2sc(C(F)(F)F)nn12)NCc1ccc(F)cc1 [Example 0614] | 100
– | – | 3.15 | – | O=C(O)/C=C/c1c(-c2ccc(Cl)cc2Cl)nc2sc(C(F)(F)F)nn12 [VA-1, (2E)-3-[6-(2,4-Dichlorophenyl)-2-(trifluoromethyl)imidazo[2,1-b][1,3,4]thiadiazol-5-yl]acrylic Acid] | –
– | – | – | 2.77 | Cc1ccccc1-c1nc2sc(C(F)(F)F)nn2c1/C=C/C(=O)O [VA-5] | –
– | – | – | 2.75 | O=C(O)/C=C/c1c(-c2ccc(F)cc2)nc2sc(C(F)(F)F)nn12 [VA-6] | –
– | – | – | 3.33 | O=C(O)/C=C/c1c(-c2cccc(C(F)(F)F)c2)nc2sc(C(F)(F)F)nn12 [VA-7] | –
– | – | – | 2.55 | O=C(O)/C=C/c1c(-c2ccccc2F)nc2sc(C(F)(F)F)nn12 [VA-8] | –
– | – | – | 2.84 | O=C(O)/C=C/c1c(-c2ccc(F)cc2Cl)nc2sc(C(F)(F)F)nn12 [VA-9] | –
– | – | – | 2.43 | COc1ccc(-c2nc3sc(C(F)(F)F)nn3c2/C=C/C(=O)O)cc1OC [VA-10] | –
– | – | – | 2.41 | O=C(O)/C=C/c1c(-c2ccccc2Cl)nc2sc(C(F)F)nn12 [VA-14] | –
– | – | – | 2.93 | O=C(O)/C=C/c1c(-c2ccccc2Cl)nc2sc(C(F)(F)Cl)nn12 [VA-24] | –
